In patent US20220257604A1, “COMPOSITIONS AND METHODS FOR […] INFECTIONS BY REGULATING GLUCOSYLCERAMIDES” (priority 2019, published 2022):

Assays:
A549 cells [1] = assay type: cell-based, human; details: WT A549 cells pretreated with nocodazole; EGF-555 100 ng/mL; 40 minutes at 37° C.; compared with GBA KO cells
A549 cells [2] = assay type: cell-based, human; details: 40 minutes at 37° C., compared with GBA KO cells

Compound: COC(=O)Nc1nc2ccc(C(=O)c3cccs3)cc2[nH]1 [nocodazole]
- colocalization of EGF with Lamp1 (Manders coefficient) (A549 cells [1]): not as severe as seen in WT cells treated with nocodazole
- colocalization of influenza with Lamp1 (Manders coefficient) (A549 cells [2]): not as strongly as in WT cells treated with nocodazole
